Measurements taken from PMC12171880, “Selectivity and Safety Characterization of a Xanthine–Imidazothiazole Lead Structure: a Novel Tryptophan Hydroxylase Inhibitor of Peripheral Serotonin Synthesis” (ACS Pharmacology & Translational Science, 2025).

Experiments:
rat homolog of TH = target: T1, rat homolog of TH (Rattus norvegicus, UniProt P04177); experiment: Eurofins Diversity Panel enzyme assay, rat TH; format: biochemical
T1 construct: Eurofins Cerep (contract screening)
Protocol: TPT-004 was evaluated at a concentration of 10 μM in a total of 97 binding, enzyme, and uptake assays (Diversity Panel) by Eurofins Cerep (Celle l’Evescault, France). Compound binding was calculated as % inhibition of the binding of a ligand specific to each target. The compound enzyme inhibition effect was calculated as percentage inhibition of the control enzyme activity. Results showing an inhibition (or stimulation for assays run under basal conditions) of >50% are considered to represent significant effects of the test compounds. Results showing an inhibition (or stimulation) between 25% and 50% are indicative of weak to moderate effects. Results showing an inhibition (or stimulation) lower than 25% are not considered significant and are mostly attributable to variability in the signal around the control level. […] In each experiment, and if applicable, the respective reference compound was tested concurrently with TPT-004, and the data were compared with historical values determined at Eurofins. […]
The results are expressed as a percent of control-specific binding: measured specific binding/control specific binding×100 and as a percent inhibition of control-specific binding: 100−(measured specific binding/control specific binding×100) obtained in the presence of TPT-004. […]

recombinant human TH = target: T2, recombinant human TH (Homo sapiens, UniProt P07101); experiment: TH enzymatic activity assay (fluorescence, 96-well); format: biochemical
T2 construct: For purification of MBP-tagged full-length PAH and TH; made in house; host or cells: E. coli T7 Express (NEB) with pRARE2
T2 sequence (P07101 whole entry): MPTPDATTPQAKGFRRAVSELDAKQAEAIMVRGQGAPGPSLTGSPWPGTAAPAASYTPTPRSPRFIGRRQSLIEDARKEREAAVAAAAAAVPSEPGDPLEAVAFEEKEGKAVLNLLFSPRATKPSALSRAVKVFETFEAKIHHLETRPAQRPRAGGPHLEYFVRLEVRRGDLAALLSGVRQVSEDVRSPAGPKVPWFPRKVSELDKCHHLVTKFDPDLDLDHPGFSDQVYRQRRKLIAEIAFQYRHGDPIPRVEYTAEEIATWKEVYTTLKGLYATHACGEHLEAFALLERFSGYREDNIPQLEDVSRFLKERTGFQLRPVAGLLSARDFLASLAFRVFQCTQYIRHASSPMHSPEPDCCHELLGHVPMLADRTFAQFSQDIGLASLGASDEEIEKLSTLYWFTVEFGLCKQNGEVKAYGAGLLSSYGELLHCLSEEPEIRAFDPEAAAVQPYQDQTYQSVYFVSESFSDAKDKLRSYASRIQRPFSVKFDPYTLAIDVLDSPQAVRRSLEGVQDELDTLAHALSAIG
Protocol: The TH enzymatic activity assay was performed using a 96-well plate format (Greiner). […] To initiate the reaction, L-Tyr (Fluka) was added (final concentration, 30 μM). The assay contained positive control samples (complete reaction mix, no inhibitor test compound), negative control samples (reaction mix without BH4), and an additional L-Tyr control (reaction mix without BH4, spiked with 25.5 μM or 27 μM L-Tyr) to measure the progression of the enzymatic reaction. All samples were measured in technical triplicates. The TH assay was performed at RT for 30 min. Depletion of the reaction substrate (L-Tyr) was continuously monitored at 240 s intervals by fluorescence measurements (ex.280 nm/em.306 nm) for 12 min using a Tecan Infinite 200 plate reader.
Negative control values (no enzyme or no substrate) were deducted from the positive control (full enzyme activity) and test compound values. Subsequently, the data were normalized (Pos. Ctr. = 100% of the enzyme activity). The results were further analyzed with GraphPad Prism 9 using the nonlinear regression model: log(inhibitor) vs. response−variableslope(fourparameters) which fits the following equation to the data: Y=Bottom+(Top−Bottom)/(1+10^((logIC50−X)×HillSlope))
The IC50 values were calculated from three independent experiments and are given as the mean ± SD.

T1 sequence (P04177 whole entry): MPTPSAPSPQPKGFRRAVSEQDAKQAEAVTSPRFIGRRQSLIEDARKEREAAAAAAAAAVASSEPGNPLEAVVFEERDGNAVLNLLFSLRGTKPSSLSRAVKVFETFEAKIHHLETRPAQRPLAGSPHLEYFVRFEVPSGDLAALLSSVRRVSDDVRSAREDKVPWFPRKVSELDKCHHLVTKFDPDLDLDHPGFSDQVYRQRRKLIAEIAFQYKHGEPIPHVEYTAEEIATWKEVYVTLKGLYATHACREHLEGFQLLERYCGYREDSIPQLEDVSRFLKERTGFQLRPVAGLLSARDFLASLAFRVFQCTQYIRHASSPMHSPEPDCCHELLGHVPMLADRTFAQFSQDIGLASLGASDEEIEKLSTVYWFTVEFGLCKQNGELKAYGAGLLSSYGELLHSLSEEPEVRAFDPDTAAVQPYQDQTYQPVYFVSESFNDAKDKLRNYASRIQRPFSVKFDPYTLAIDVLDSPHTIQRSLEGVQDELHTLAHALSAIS

SMILES: CCn1c(=O)[nH]c(=O)c2c1nc(Cc1cn3cc(C)sc3n1)n2CC1COC1 [TPT-004]
- inhibition at 10 µM (rat homolog of TH): 87.8%
- Mean TH activity [%] (recombinant human TH; 10 nM): 92.60%
- IC50 (recombinant human TH; 10 nM to 30 μM, 30 μM L-Tyr, 5 μM BH4): 1360 nM
- Mean TH activity [%] (recombinant human TH; 30 nM): 90.14%
- Mean TH activity [%] (recombinant human TH; 100 nM): 95.57%
- Mean TH activity [%] (recombinant human TH; 300 nM): 86.81%
- Mean TH activity [%] (recombinant human TH; 1 μM): 58.14%
- Mean TH activity [%] (recombinant human TH; 3 μM): 28.97%
- Mean TH activity [%] (recombinant human TH; 10 μM): 6.59%
- Mean TH activity [%] (recombinant human TH; 30 μM): -6.30%
- Selectivity ratio TH IC50 : TPH1 IC50 (recombinant human TH; calculated from determined IC50 values): 40.71
- IC50 (recombinant human TH; supplementary CSV): 1360 nM
